Patent US20230338463A1, “ICD PEPTIDE AND USE THEREOF FOR HAVING CYTOTOXIC ACTIVITY ON CANCER CELLS” (NATIONAL TSING HUA UNIVERSITY, priority 2022, published 2023)
Non-standard residues stand in square brackets, D forms with d. Residues, ends and D or L forms follow the SMILES beside them. Bip = N[C@@H](Cc1ccc(-c2ccccc2)cc1)C(=O)O; Dip = N[C@H](C(=O)O)C(c1ccccc1)c1ccccc1

What was measured:
[1] = test system: CGNHC9 cells (oral squamous cell carcinoma); details: for cell viability percentage: human, 24 h
Source text: (§1) Three non-small cell lung cancer cell lines (H1975, A549, PC9) and two oral cancer cell lines (CGNHC9, OECM-1) were used in the present invention. H1975 is the non-small cell lung carcinoma tissue, A549 is the adenocarcinomic alveolar basal epithelial cells and PC9 is the non-small cell lung cancer with EGFR mutation. CGNHC9 and OECM-1 cell lines refer to oral squamous cell carcinoma and gingival epidermoid carcinoma respectively. The abovemetioned cell lines were derived from human origin and being cultured in the humidified incubator containing 5% CO2 at 37° C. CGNHC9 cell line was cultured in Dulbecco’s modified Eagle’s medium (GIBCO Life Technologies Corporation, NY, USA) with 10% fetal bovine serum (FBS), 2 mM L-glutamine and 1% penicillin/ streptomycin and Roswell Park Memorial Institute 1640 (RPMI 1640, GIBCO Life Technologies Corporation, NY, USA) medium with 10% fetal bovine serum (FBS), 2 mM L-glutamine and 1% penicillin/ streptomycin was used as the culture medium for the rest of the cell lines.
(§2) The anticancer activity of ICD peptides include, not limited, SEQ ID NO: 1 and its derivative peptides (SEQ ID NO: 2, SEQ ID NO: 3, SEQ ID NO: 4, and SEQ ID NO: 5) was using the 3-(4,5-Dimethyl-2-thiazolyl)-2,5-diphenyl-2H-tetrazolium bromide (MTT, Sigma Aldrich, St. Louis, MO, USA) colorimetric assay for cell viability test. The cells include, not limited, H1975, A549, PC9, CGNHC9, OECM-1, MN-11 and HFW cells/cell lines.
(§3) The cells were seeded in the 96-well plate at 5000 cells/well under the environment of humidified 5% CO2 and the temperature of 37° C. for 24 hours. The medium was removed from the well before the fresh medium containing different concentrations of ICD peptides was added and incubated for 24 hours. Medium with PBS solution was used as control group. All ICD peptides were diluted serially from 100 µM to 0.78 µM in ddH2O before adding in the medium. After 24 hours of ICD peptide treatment, fresh medium with 10% MTT solution (5 mg/mL) was incubated for additional 4 hours in advance of dissolving the formazan crystal in 100 µL DMSO (Dimethyl sulfoxide, Sigma Aldrich) solution. The calculation of cell survival rate was completed by measuring the absorbance at 570 nm using microplate reader (TECAN Sunrise ELISA Reader).
(§4) The cell survival was calculated from the treated cells relative to the control (100% viable cells) using the mean of three independent experiments and expressed as a 50% inhibitory concentration (IC50).
(§5) The percentage of cell viability was calculated using the following formula: […]
(§6) The half inhibition concentration (IC50) is the concentration required by the drug to reach fifty percent inhibition. In one embodiment, the SEQ ID NO: 1 and its derivative peptides (SEQ ID NO:2, SEQ ID NO:3, SEQ ID NO:4, SEQ ID NO: 5) was used for IC50 test via MTT colorimetric assay.

[2] = test system: A549 cells (adenocarcinomic alveolar basal epithelial cells); details: A549, MTT, 24 hours
Source text: as §1, §2, §3, §4, §5, §6

[3] = test system: OECM-1 cells (gingival epidermoid carcinoma); details: for cell viability percentage: human, 24 h
Source text: as §1, §2, §3, §4, §5, §6

[4] = test system: H1975 cells (non-small cell lung cancer); details: 24 h
Source text: as §1, §2, §3, §4, §5, §6

MN-11 cell line = format: cell-based, murine; details: 2 h
Protocol: Besides, evaluation of the killing kinetics of Nal-P-113, Bip-P-113 and Dip-P-113 for MN-11 was determined by MTT assay. Two-fold half 1inhibitory concentration (2 × IC50) was chosen for the experiments and the results were recorded at selected time points (30 mins, 1 hour, 2 hours and 4 hours). […] In 2 hours, the cell survival rate was near 50%.

[5] = test system: MN-11 cells (murine fibrosarcoma); format: cell-based
Source text: Medium with PBS solution was used as control group.
Besides, MTT assay was used to test the cell viability of the murine fibrosarcoma MN-11 cell line. Among the peptides, Dip-P-113 had the lowest cytotoxicity against MN-11 cells (FIG. 1F).

[6] = test system: PC9 cells (non-small cell lung cancer with EGFR mutation); details: human, 24 h
Source text: as §1, §2, §3, §4, §5, §6

Molecule	IC50 ([1]; CGNHC9, MTT, 24 hours)	IC50 [2]	IC50 ([3]; OECM-1, MTT, 24 hours)	IC50 [4]	cell survival rate (MN-11 cell line)	IC50 [5]	cell viability percentage [1]	cell viability percentage [3]	cell viability percentage [6]
Ac-AKRHHGYKRKFH-NH2 [SEQ ID NO: 1, Ac-AKR His His GYKRKF His-NH2]	84.3 µM	107 µM	141 µM	110 µM					
CC(=O)N[C@@H](C)C(=O)N[C@@H](CCCCN)C(=O)N[C@@H](CCCNC(=N)N)C(=O)N[C@H](C(=O)N[C@H](C(=O)NCC(=O)N[C@@H](Cc1ccc(O)cc1)C(=O)N[C@@H](CCCCN)C(=O)N[C@@H](CCCNC(=N)N)C(=O)N[C@@H](CCCCN)C(=O)N[C@@H](Cc1ccccc1)C(=O)N[C@H](C(N)=O)C(c1ccccc1)c1ccccc1)C(c1ccccc1)c1ccccc1)C(c1ccccc1)c1ccccc1 [SEQ ID NO: 5, Ac-AKR Dip Dip GYKRKFDip-NH2] (Ac-AKR[Dip][Dip]GYKRKF[Dip]-NH2)				100 µM	~50%	59.8 ± 6.13 µM	lower than 20%	lower than 20%	lower than 20%
CC(=O)N[C@@H](C)C(=O)N[C@@H](CCCCN)C(=O)N[C@@H](CCCNC(=N)N)C(=O)N[C@@H](Cc1ccc(-c2ccccc2)cc1)C(=O)N[C@@H](Cc1ccc(-c2ccccc2)cc1)C(=O)NCC(=O)N[C@@H](Cc1ccc(O)cc1)C(=O)N[C@@H](CCCCN)C(=O)N[C@@H](CCCNC(=N)N)C(=O)N[C@@H](CCCCN)C(=O)N[C@@H](Cc1ccccc1)C(=O)N[C@@H](Cc1ccc(-c2ccccc2)cc1)C(N)=O [SEQ ID NO:4, Ac-AKR Bip Bip GYKRKF Bip-NH2] (Ac-AKR[Bip][Bip]GYKRKF[Bip]-NH2)					~50%	12.1 ± 0.47 µM	lower than 20%	lower than 20%	lower than 20%
Ac-AKRFFGYKRKFF-NH2 [SEQ ID NO:2, Ac-AKR Phe Phe GYKRKF Phe-NH2]				107 µM					
